Data on 15 compounds can be found in patent publication US10442778B2, “N1-phenylpropane-1,2-diamine compounds with selective activity in voltage-gated sodium channels” (Merck Sharp & Dohme Corp., priority 2016, dated 2019).

pIC50: −log10 of the molar value.

Test [1] deals with T1, human Nav1.5 channels stably expressed in HEK 293 cells (Homo sapiens, UniProt Q14524).
T1 construct: expressed in transfected cells; host or cells: HEK 293
In words: IonWorks Quattro automated patch-clamp, inactivated state block of Nav1.5 (selectivity). The note with it: IonWorks measurement, both channels in HEK 293 cells. Type of test: cell-based. On the procedure:
(§1) Compounds were tested on human Nav1.7 and Nav1.5 channels stably expressed in HEK 293 cells. […] Cells were sealed on a planar substrate using the Population Patch Plate (PPC) technology. Electrical access was obtained using both nystatin and amphotericin. A double-pulse protocol was used for the determination of IC50 values for inactivated state block. Nav1.7 and Nav1.5 expressing cells were voltage clamped at −100 mV and −110 mV, respectively. A depolarizing prepulse to −10 mV (Nav1.7) or −30 mV (Nav1.5) for 1000 ms followed by a 10 ms repolarization to −100 mV (Nav1.7) or −110 mV (Nav1.5) was given to generate fractional channel inactivation of ˜50%, followed by a 10 ms test pulse to −10 mV (Nav1.7) or −30 mV (Nav1.5) to measure peak current in control conditions and after compound addition. The following recording solutions were used (mM). External: 150 NaCl, 2 CaCl2, 5 KCl, 1 Mg Cl2, 10 HEPES, 12 Dextrose; internal: 120 CsF, 30 CsCl, 10 EGTA, 5 HEPES, 5 NaF, 2 MgCl2.
(§2) For all electrophysiology experiments, offline analysis was used to determine percent inhibition as a function of drug concentration. IC50 values were determined by fitting to the Hill equation.
(In general: The patch-clamp technique gives a direct electrical read-out from membranes.)

For test [2], the target named is T2, human Nav1.7 channels stably expressed in HEK 293 cells (Homo sapiens, UniProt Q15858).
T2 construct: expressed in transfected cells; host or cells: HEK 293
In words: IonWorks Quattro automated patch-clamp, inactivated state block of Nav1.7. Type of test: cell-based. As to conditions: double-pulse protocol, read-out: potency for the Nav 1.7 sodium ion channel (as measured by IonWorks). How it is done:
as §1, §2

T2 sequence (Q15858 whole entry): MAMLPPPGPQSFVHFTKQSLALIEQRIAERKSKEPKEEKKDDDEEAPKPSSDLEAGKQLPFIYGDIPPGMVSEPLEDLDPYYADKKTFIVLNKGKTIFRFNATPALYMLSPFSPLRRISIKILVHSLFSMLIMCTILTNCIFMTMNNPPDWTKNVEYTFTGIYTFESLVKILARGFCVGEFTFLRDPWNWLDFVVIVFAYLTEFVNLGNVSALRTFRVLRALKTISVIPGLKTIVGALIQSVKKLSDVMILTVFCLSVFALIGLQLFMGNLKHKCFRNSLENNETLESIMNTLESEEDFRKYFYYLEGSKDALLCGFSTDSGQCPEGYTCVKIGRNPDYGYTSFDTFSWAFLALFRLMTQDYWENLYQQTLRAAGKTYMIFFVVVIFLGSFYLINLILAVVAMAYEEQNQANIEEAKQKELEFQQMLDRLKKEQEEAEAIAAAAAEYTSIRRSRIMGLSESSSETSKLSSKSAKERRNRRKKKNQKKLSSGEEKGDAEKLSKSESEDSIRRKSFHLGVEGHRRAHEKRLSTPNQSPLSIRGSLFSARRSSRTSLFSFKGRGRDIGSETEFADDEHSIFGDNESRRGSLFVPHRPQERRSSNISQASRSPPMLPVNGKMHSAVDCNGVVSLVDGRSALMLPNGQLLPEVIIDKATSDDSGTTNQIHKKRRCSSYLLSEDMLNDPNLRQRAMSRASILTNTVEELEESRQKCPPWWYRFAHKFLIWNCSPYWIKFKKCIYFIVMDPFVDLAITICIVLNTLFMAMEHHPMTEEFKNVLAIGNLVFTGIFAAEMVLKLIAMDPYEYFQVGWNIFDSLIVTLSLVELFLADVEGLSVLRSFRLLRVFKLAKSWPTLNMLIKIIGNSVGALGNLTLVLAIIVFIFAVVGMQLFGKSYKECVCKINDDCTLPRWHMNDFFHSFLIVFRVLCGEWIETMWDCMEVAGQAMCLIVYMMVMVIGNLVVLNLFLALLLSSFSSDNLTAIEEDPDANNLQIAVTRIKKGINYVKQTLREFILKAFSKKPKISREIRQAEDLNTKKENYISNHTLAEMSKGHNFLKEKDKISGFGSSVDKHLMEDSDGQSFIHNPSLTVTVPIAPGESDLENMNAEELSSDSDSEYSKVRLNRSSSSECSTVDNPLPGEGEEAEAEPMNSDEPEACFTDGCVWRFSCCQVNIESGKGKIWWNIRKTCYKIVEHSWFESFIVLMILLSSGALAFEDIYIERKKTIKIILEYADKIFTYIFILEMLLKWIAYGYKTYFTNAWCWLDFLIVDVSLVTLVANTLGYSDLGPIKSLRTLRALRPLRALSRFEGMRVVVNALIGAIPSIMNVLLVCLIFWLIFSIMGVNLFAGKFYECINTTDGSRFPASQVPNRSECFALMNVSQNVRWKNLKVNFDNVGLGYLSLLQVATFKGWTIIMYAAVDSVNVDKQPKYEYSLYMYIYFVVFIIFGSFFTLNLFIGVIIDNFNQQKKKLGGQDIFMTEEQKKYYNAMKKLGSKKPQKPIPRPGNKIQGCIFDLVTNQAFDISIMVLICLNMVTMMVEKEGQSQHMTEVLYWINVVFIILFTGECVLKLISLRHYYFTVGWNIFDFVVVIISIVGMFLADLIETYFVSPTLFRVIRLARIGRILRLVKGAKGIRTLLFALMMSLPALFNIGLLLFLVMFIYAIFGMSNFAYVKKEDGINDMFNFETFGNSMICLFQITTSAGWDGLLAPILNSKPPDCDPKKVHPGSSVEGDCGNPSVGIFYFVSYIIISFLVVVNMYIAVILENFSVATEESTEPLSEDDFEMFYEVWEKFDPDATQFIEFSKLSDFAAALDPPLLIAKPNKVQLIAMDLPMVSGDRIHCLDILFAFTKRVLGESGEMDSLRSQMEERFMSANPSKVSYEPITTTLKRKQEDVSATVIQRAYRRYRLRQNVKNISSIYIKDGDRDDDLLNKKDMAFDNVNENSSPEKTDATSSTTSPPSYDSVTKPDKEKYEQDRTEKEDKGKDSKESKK
T1 sequence (Q14524 whole entry): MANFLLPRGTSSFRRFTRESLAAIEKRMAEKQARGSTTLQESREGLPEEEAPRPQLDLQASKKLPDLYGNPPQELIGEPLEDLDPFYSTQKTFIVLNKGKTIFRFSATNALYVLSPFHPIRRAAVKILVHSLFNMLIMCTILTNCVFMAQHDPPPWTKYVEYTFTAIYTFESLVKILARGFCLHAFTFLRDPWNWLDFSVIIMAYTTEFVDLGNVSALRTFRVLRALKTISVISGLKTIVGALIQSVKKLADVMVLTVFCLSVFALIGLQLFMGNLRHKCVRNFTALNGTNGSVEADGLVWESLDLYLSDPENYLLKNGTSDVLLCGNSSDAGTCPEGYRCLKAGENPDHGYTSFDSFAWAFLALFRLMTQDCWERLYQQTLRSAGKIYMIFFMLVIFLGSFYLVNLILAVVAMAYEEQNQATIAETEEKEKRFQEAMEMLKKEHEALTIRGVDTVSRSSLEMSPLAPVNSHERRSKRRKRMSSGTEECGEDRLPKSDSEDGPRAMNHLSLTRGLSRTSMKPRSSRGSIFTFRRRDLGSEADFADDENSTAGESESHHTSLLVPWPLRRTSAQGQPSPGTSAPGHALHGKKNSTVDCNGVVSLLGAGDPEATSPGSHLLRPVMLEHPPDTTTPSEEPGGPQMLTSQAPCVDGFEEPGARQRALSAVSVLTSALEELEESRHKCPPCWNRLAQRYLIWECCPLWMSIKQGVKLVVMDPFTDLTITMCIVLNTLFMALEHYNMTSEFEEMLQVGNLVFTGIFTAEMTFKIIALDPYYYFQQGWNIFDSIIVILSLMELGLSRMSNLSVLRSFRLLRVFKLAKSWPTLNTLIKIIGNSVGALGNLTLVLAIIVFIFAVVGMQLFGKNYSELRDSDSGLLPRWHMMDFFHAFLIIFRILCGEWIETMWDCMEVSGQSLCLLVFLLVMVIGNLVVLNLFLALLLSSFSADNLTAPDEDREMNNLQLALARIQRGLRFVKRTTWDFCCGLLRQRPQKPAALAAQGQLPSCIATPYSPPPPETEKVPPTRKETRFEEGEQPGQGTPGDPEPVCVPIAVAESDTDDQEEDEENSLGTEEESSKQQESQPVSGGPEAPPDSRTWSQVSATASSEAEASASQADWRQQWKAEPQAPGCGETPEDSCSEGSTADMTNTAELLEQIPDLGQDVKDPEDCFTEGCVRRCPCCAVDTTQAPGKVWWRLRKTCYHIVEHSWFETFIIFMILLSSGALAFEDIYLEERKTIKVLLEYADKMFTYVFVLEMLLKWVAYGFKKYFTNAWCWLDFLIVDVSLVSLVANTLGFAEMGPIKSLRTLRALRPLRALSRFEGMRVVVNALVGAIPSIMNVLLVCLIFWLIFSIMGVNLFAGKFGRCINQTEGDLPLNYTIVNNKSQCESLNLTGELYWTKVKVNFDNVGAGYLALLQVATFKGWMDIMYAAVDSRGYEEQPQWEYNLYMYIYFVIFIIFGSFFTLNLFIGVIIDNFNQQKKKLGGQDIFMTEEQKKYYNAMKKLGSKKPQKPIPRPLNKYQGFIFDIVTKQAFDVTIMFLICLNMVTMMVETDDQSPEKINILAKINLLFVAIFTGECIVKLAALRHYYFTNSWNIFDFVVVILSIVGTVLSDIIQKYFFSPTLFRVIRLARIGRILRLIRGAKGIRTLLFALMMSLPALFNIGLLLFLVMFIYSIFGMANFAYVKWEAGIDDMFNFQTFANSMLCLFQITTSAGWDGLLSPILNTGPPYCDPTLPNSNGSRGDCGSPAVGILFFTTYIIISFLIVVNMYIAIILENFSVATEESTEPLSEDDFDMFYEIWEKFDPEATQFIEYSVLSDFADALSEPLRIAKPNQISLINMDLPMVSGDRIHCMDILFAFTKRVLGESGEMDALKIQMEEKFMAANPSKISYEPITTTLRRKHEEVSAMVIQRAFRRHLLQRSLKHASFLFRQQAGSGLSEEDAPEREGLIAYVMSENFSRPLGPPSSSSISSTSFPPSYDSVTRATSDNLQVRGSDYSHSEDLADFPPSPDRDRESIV

With `CN[C@H](CNc1cc(F)c(S(=O)(=O)Nc2nccs2)cc1Cl)CC1(C(F)(F)F)CC1` [Ex2-16, (S)-5-chloro-2-fluoro-4-((2-(methylamino)-3-(1-(trifluoromethyl)cyclopropyl)-propyl)amino)-N-(thiazol-2-yl)-benzenesulfonamide], the “ratio of Nav1.7 potency:Nav 1.5 potency” value in test [1] was over 275. Further, the pIC50 in test [2] is 6.92.
With `CN[C@H](CNc1cc(F)c(S(=O)(=O)Nc2ncc(F)s2)cc1Cl)C[Si](C)(C)C` [Ex2-17, (R)-5-chloro-2-fluoro-N-(5-fluorothiazol-2-yl)-4-((2-(methylamino)-3-(trimethylsilyl)propyl)-amino)benzenesulfonamide], in test [1], the “ratio of Nav1.7 potency:Nav 1.5 potency” value is reported as over 1929. Further, the pIC50 in test [2] is 7.85.
Take `CN[C@H](CNc1cc(F)c(S(=O)(=O)Nc2ncc(F)s2)cc1Cl)CC1CC1` [Ex2-18, (S)-5-chloro-4-((3-cyclopropyl-2-(methylamino)propyl)amino)-2-fluoro-N-(5-fluorothiazol-2-yl)-benzenesulfonamide]: in test [1], the “ratio of Nav1.7 potency:Nav 1.5 potency” value was over 39. For the same compound, the pIC50 in test [2] was 6.07.
On to `CN[C@@H](CCC1CC1)CNc1cc(F)c(S(=O)(=O)Nc2ncc(F)s2)cc1Cl` [Ex2-19, (S)-5-chloro-4-((4-cyclopropyl-2-(methylamino)butyl)amino)-2-fluoro-N-(5-fluorothiazol-2-yl)-benzenesulfonamide], for which, in test [1], the “ratio of Nav1.7 potency:Nav 1.5 potency” value was over 41. Also, in test [2], the pIC50 is 6.10.
For `CN[C@H](CNc1cc(F)c(S(=O)(=O)Nc2ncc(F)s2)cc1Cl)CC1CC1(C)C` (stereo partly drawn) [Ex2-20, 5-chloro-4-(((2S)-3-(2,2-dimethylcyclopropyl)-2-(methylamino)propyl)amino)-2-fluoro-N-(5-fluorothiazol-2-yl)-benzenesulfonamide], the “ratio of Nav1.7 potency:Nav 1.5 potency” value in test [1] was over 485. For the same compound, the pIC50 in test [2] was 7.17.
For `CN[C@H](CNc1cc(F)c(S(=O)(=O)Nc2ncc(F)s2)cc1Cl)CC1CC1(F)F` (stereo partly drawn) [Ex2-22, 5-chloro-4-(((2S)-3-(2,2-difluorocyclopropyl)-2-(methylamino)propyl)amino)-2-fluoro-N-(5-fluorothiazol-2-yl)-benzenesulfonamide] the same measures were over 23 and 6.00.
Taken in the same sequence, the figures for `CN[C@@H](CCC1(C)CC1)CNc1cc(F)c(S(=O)(=O)Nc2ncc(F)s2)cc1Cl` [Ex2-23, (S)-5-chloro-2-fluoro-N-(5-fluorothiazol-2-yl)-4-((2-(methylamino)-4-(1-methylcyclopropyl)butyl)amino)benzenesulfonamide] were over 2750 and 7.92.
Consider `CN[C@@H](CCC1CCC1)CNc1cc(F)c(S(=O)(=O)Nc2ncc(F)s2)cc1Cl` [Ex3-13, (S)-5-chloro-4-((4-cyclobutyl-2-(methylamino)butyl)amino)-2-fluoro-N-(5-fluorothiazol-2-yl)-benzenesulfonamide], for which the “ratio of Nav1.7 potency:Nav 1.5 potency” value in test [1] is recorded as over 110. Besides, the pIC50 in test [2] was 6.52.
For `[2H]C([2H])([2H])N[C@H](CNc1cc(F)c(S(=O)(=O)Nc2ncc(F)s2)cc1Cl)CC(C)(C)C` [Ex3-14, (S)-5-chloro-4-((4,4-dimethyl-2-((methyl-d3)amino)pentyl)amino)-2-fluoro-N-(5-fluorothiazol-2-yl)-benzenesulfonamide] the same measures were over 429 and 7.19.
For `CN[C@H](CNc1cc(F)c(S(=O)(=O)Nc2ncc(F)s2)cc1C#N)CC(C)(C)C` [Ex4-3, (S)-5-cyano-4-((4,4-dimethyl-2-(methylamino)pentyl)amino)-2-fluoro-N-(5-fluorothiazol-2-yl)benzenesulfonamide], the “ratio of Nav1.7 potency:Nav 1.5 potency” value in test [1] is over 52. For the same compound, the pIC50 in test [2] is 6.19.
For `CN[C@H](CNc1cc(F)c(S(=O)(=O)Nc2ncc(F)s2)cc1Cl)CC1(C)CC1` [Ex6-10, (S)-5-chloro-2-fluoro-N-(5-fluorothiazol-2-yl)-4-((2-(methylamino)-3-(1-methylcyclopropyl)propyl)amino)benzenesulfonamide] the same measures were over 68 and 6.47.
Consider `CN(C)[C@H](CNc1cc(F)c(S(=O)(=O)Nc2ncc(F)s2)cc1Cl)C[Si](C)(C)C` [Ex7-2, (R)-5-chloro-4-((2-(dimethylamino)-3-(trimethylsilyl)propyl)-amino)-2-fluoro-N-(5-fluorothiazol-2-yl)benzenesulfonamide], for which the “ratio of Nav1.7 potency:Nav 1.5 potency” value in test [1] is over 889. In addition, the pIC50 in test [2] was 7.74.
Take `CCN[C@H](CNc1cc(F)c(S(=O)(=O)Nc2ncc(F)s2)cc1Cl)C[Si](C)(C)C` [Ex7-4, (R)-5-chloro-4-((2-(ethylamino)-3-(trimethylsilyl)propyl)amino)-2-fluoro-N-(5-fluorothiazol-2-yl)benzenesulfonamide]: in test [1], the “ratio of Nav1.7 potency:Nav 1.5 potency” value is on record as over 11000. In addition, the pIC50 in test [2] was 8.52.
For `CCCC[C@@H](CNc1cc(F)c(S(=O)(=O)Nc2ncc(F)s2)cc1Cl)NCCC` [Ex7-5, (S)-5-chloro-2-fluoro-N-(5-fluorothiazol-2-yl)-4-((2-(propylainino)hexyl)amino) benzenesulfonamide] the same measures were over 805 and 7.39.
Turning to `CCCC[C@@H](CNc1cc(F)c(S(=O)(=O)Nc2ncc(F)s2)cc1Cl)NC(C)C` [Ex7-6, (S)-5-chloro-2-fluoro-N-(5-fluorothiazol-2-yl)-4-((2-(isopropylamino)hexyl)amino) benzenesulfonamide], in test [1], the “ratio of Nav1.7 potency:Nav 1.5 potency” value was over 533. Besides, the pIC50 in test [2] is 7.52.
